Measurements: patent publication US10040815B2, “3-substituted 5-amino-6H-thiazolo[4,5-d]pyrimidine-2,7-dione compounds for the treatment and prophylaxis of virus infection” (Hoffmann-La Roche Inc., priority 2014, dated 2018)
Like-named read-outs stand apart in the source and are kept apart here.

Legend:
human TLR7 = human TLR7 (Homo sapiens (Human), UniProt Q9NYK1); experiment: HEK293-Blue-hTLR-7 cells assay (SEAP reporter, NF-κB activation); assay type: cell-based
From the text: HEK293-Blue-hTLR-7 Cells Assay: A stable HEK293-Blue-hTLR-7 cell line was purchased from InvivoGen (Cat.#: hkb-htlr7, San Diego, Calif., USA). These cells were designed for studying the stimulation of human TLR7 by monitoring the activation of NF-κB. A SEAP (secreted embryonic alkaline phosphatase) reporter gene was placed under the control of the IFN-β[…] minimal promoter fused to five NF-κB and AP-1-binding sites. The SEAP was induced by activating NF-κB and AP-1 via stimulating HEK-Blue hTLR7 cells with TLR7 ligands. Therefore the reporter expression was regulated by the NF-κB promoter upon stimulation of human TLR7 for 20 hours. The cell culture supernatant SEAP reporter activity was determined using QUANTI-Blue™ kit (Cat.#: rep-qb1, Invivogen, San Diego, Calif., USA) at a wavelength of 640 nm, a detection medium that turns purple or blue in the presence of alkaline phosphatase. […] Then 20 μL of the supernatant from each well was incubated with 180 μL Quanti-blue substrate solution at 37° C. for 2 hours and the absorbance was read at 620˜655 nm using a spectrophotometer. […] Hiroaki Hemmi et al, Nature Immunology 3, 196-200 (2002).

human hepatocytes = experiment: Metabolic conversion of prodrugs to active forms in human hepatocytes (LC-MS/MS); assay type: in vitro ADME; details: for metabolic conversion of prodrug to active metabolite in human hepatocytes: active metabolites Example 1-A, Example 14-A and penciclovir, respectively
From the text: Metabolism of Prodrugs: Formula (II) or Formula (IIa) A study was undertaken to evaluate the metabolic conversion of prodrugs, formula (II) or formula (IIa), to compounds of formula (I) or formula (Ia) of the present invention. The produgs, formula (II) or formula (IIa), can be metabolized to the active compound of formula (I) or formula (Ia) and other compounds of the invention in the body if they are served as prodrugs. Hepatocytes are often used to assess the degree of metabolic conversion of prodrugs in the body of animal or human. A study was undertaken to evaluate the metabolic conversion of prodrugs, Example 2-A, Example 3-A, Example 4-A, Example 16-A and Example 17-A, to the corresponding active forms, Example 1-A and Example 14-A, in the presence of human hepatocytes. The formation of active forms, Example 1-A and Example 14-A, were monitored in the study. For comparison, the metabolic conversion of famciclovir to penciclovir was also assessed. Cryopreserved hepatocytes plating medium (Cat.#: PY-HMD-01) was purchased from RILD Research Institute for Liver Diseases (Shanghai) Co. Ltd. Cryopreserved human hepatocyte (Cat.#: X008005, Lot#:VRR) was purchased from In Vitro Technologies (Baltimore, Md.). The stock hepatocyte suspension was prepared from cryopreserved hepatocytes in plating medium at the concentration of 1.8×10^6 cells/mL. […] Reaction suspensions were prepared in 24-well cell culture plate by mixing 200 μL of hepatocytes suspension (Cyno or human) and 200 μL of working solution. The final incubation contained 0.9×10^6 cells/mL and 50 μM compound. The above mixtures were incubated at 37° C. in a humidified 5% CO2 atmosphere, with a 150 rpm shaking. After 180 min of incubation, 200 μL of the incubation mixture was transferred to 1.5 mL tube and quenched with 400 μL stop solution (ice-cold acetonitrile with 0.2 μM Tolbutamide as internal standard). The samples were centrifuged at 12000 rpm for 10 minutes and the resultant supernatants were subjected to LC-MS/MS analysis. The calibration curves were prepared in the following way. To a 200 μL of cell suspension (cell density of 1.8 million cells/mL), 198 μL of hepatocyte plating medium and 2 μL of the appropriate concentration of the compound in DMSO were added. Samples were mixed thoroughly and 200 μL of the mixture was transferred to 400 uL of the stop solution (see above). […] The compounds were quantified on an API5500 […] instrument in the ESI-Positive MRM mode.

HBV (hepatitis B virus) = experiment: In vivo antiviral efficacy in AAV-HBV mouse model; details: QOD, mouse serum
[1] = HEK293-Blue-hTLR-7 cells, 20 hours incubation, SEAP reporter, read-out: HEK293- hTLR-7 EC50
[2] = 100 mg/kg PO, after the 6-week treatment
[3] = 300 mg/kg PO, at the end of the treatment (6 weeks)

Sequence of human TLR7 (Q9NYK1 27-1049): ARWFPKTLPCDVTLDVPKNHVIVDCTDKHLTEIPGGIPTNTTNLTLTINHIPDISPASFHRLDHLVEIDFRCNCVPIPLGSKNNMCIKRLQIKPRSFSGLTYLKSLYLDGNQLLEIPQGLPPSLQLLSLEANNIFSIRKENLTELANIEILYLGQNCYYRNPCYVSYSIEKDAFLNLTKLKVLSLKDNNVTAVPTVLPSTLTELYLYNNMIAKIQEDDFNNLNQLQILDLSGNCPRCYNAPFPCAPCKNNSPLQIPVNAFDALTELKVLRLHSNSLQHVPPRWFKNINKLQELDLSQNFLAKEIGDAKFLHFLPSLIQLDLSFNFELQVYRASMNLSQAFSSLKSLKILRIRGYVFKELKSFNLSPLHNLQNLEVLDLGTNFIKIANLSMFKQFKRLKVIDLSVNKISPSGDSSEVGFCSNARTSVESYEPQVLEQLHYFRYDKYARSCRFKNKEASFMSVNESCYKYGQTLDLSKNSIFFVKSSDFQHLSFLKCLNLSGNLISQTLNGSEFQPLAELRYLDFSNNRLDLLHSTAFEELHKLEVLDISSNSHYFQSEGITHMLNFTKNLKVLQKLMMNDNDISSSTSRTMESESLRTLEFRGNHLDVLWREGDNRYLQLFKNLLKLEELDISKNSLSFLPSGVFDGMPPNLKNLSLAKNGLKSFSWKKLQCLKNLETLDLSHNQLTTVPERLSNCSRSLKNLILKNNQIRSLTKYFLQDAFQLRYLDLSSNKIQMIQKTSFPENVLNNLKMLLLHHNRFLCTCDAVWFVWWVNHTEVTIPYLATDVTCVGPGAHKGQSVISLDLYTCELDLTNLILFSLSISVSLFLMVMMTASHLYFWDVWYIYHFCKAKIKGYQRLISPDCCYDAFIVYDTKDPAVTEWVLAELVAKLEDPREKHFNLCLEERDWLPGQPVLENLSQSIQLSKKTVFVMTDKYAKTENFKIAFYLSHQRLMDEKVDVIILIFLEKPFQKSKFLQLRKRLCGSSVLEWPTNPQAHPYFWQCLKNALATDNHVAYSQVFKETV

EC50 (human TLR7; [1]) | Structure (SMILES) | further results
70 µM | C[C@H](O)[C@@H]1C[C@@H](C)[C@H](n2c(=O)sc3c(=O)[nH]c(N)nc32)O1 [Example 31, 5-Amino-3-[(2R,3R,5S)-5-[(1S)-1-hydroxyethyl]-3-methyl-tetrahydrofuran-2-yl]-6H-thiazolo[4,5-d]pyrimidine-2,7-dione] | –
29 µM | CC#C[C@H](O)[C@@H]1C[C@@H](C)[C@H](n2c(=O)sc3c(=O)[nH]c(N)nc32)O1 [Example 29, 5-Amino-3-[(2R,3R,5S)-5-[(1S)-1-hydroxybut-2-ynyl]-3-methyl-tetrahydrofuran-2-yl]-6H-thiazolo[4,5-d]pyrimidine-2,7-dione] | –
12 µM | C#CC(O)[C@@H]1C[C@@H](O)[C@H](n2c(=O)sc3c(=O)[nH]c(N)nc32)O1 (single isomer, unassigned) [Example 18-A] | –
51 µM | CC[C@H](OC(=O)C(C)C)[C@@H]1C[C@@H](O)[C@H](n2c(=O)sc3c(=O)[nH]c(N)nc32)O1 [Example 42, [(1S)-1-[(2S,4R,5R)-5-(5-Amino-2,7-dioxo-6H-thiazolo[4,5-d]pyrimidin-3-yl)-4-hydroxy-tetrahydrofuran-2-yl]propyl] 2-methylpropanoate] | –
– | CC(=O)OCC(CCn1cnc2cnc(N)nc21)COC(C)=O [Famciclovir, famciclovir, reference compound] | metabolic conversion of prodrug to active metabolite in human hepatocytes (human hepatocytes): metabolized to yield the corresponding active metabolites
15 µM | CCC[C@@H]1C[C@@H]([C@@H](O)CC)O[C@H]1n1c(=O)sc2c(=O)[nH]c(N)nc21 [Example 27-A, 5-amino-3-[(2R,3R,5S)-5-[(1S)-1-hydroxypropyl]-3-propyl-tetrahydrofuran-2-yl]-6H-thiazolo[4,5-d]pyrimidine-2,7-dione] | –
87 µM | C=CCC(O)[C@@H]1C[C@@H](O)[C@H](n2c(=O)sc3c(=O)[nH]c(N)nc32)O1 (single isomer, unassigned) [Example 8-A] | –
– | CC[C@H](O)[C@@H]1C[C@@H](C)[C@H](n2c(=O)sc3c(=O)[nH]c(N)nc32)O1 [Example 28, 5-amino-3-[(2R,3R,5S)-5-[(1S)-1-hydroxypropyl]-3-methyl-tetrahydrofuran-2-yl]-6H-thiazolo[4,5-d]pyrimidine-2,7-dione] | EC50 (human TLR7): 10 µM
– | CCC(O)[C@@H]1C[C@@H](O)[C@H](n2c(=O)sc3cnc(N)nc32)O1 (single isomer, unassigned) [Example 2-A] | metabolic conversion of prodrug to active metabolite in human hepatocytes (human hepatocytes): metabolized to yield the corresponding active metabolites
26 µM | CCC(O)[C@@H]1C[C@@H](N=[N+]=[N-])[C@H](n2c(=O)sc3c(=O)[nH]c(N)nc32)O1 (single isomer, unassigned) [Example 23-A] | –
12 µM | C=CC[C@@H]1C[C@@H](C(O)CC)O[C@H]1n1c(=O)sc2c(=O)[nH]c(N)nc21 (single isomer, unassigned) [Example 26-A] | –
48 µM | Nc1nc2c(sc(=O)n2[C@@H]2O[C@H](C(O)C3CC3)C[C@H]2O)c(=O)[nH]1 (single isomer, unassigned) [Example 14-A] | –
62 µM | CS[C@@H]1C[C@@H](CO)O[C@H]1n1c(=O)sc2c(=O)[nH]c(N)nc21 [Example 39, 5-Amino-3-[(2R,3R,5S)-5-(hydroxymethyl)-3-methylsulfanyl-tetrahydrofuran-2-yl]-6H-thiazolo[4,5-d]pyrimidine-2,7-dione] | –
38 µM | CC#CC(O)[C@@H]1C[C@@H](O)[C@H](n2c(=O)sc3c(=O)[nH]c(N)nc32)O1 (single isomer, unassigned) [Example 19-A] | –
29 µM | C=CC[C@@H]1C[C@@H](C(O)CC)O[C@H]1n1c(=O)sc2c(=O)[nH]c(N)nc21 (stereo partly drawn) [Example 26, 3-[(2R,3R,5S)-3-allyl-5-(1-hydroxypropyl)tetrahydrofuran-2-yl]-5-amino-6H-thiazolo[4,5-d]pyrimidine-2,7-dione] | –
– | CCC(O)[C@@H]1C[C@@H](OC(C)=O)[C@H](n2c(=O)sc3cnc(N)nc32)O1 (single isomer, unassigned) [Example 3-A] | metabolic conversion of prodrug to active metabolite in human hepatocytes (human hepatocytes): metabolized to yield the corresponding active metabolites
63 µM | CCCC(O)[C@@H]1C[C@@H](O)[C@H](n2c(=O)sc3c(=O)[nH]c(N)nc32)O1 (single isomer, unassigned) [Example 10-A] | –
– | CCC(OC(C)=O)[C@@H]1C[C@@H](O)[C@H](n2c(=O)sc3cnc(N)nc32)O1 (single isomer, unassigned) [Example 4-A] | reduction in HBV DNA (HBV (hepatitis B virus); [2]): more than 2 log; reduction in HBsAg (HBV (hepatitis B virus); [2]): 1.5 log; reduction in HBV DNA (HBV (hepatitis B virus); [3]): more than 3 log; reduction in HBsAg (HBV (hepatitis B virus); [3]): 2.7 log; metabolic conversion of prodrug to active metabolite in human hepatocytes (human hepatocytes): metabolized to yield the corresponding active metabolites
– | Nc1ncc2sc(=O)n([C@@H]3O[C@H](C(O)C4CC4)C[C@H]3O)c2n1 (stereo partly drawn) [Example 17-A, 5-Amino-3-[(2R,3R,5S)-5-[cyclopropyl(hydroxy)methyl]-3-hydroxy-tetrahydrofuran-2-yl]thiazolo[4,5-d]pyrimidin-2-one] | Product Concentration in human hepatocytes (metabolized product formed from prodrug) (human hepatocytes; after 3-hour incubation of 50 μM of prodrugs, product 1-A, 14-A or Penciclovir): 7.3 µM; metabolic conversion of prodrug to active metabolite in human hepatocytes (human hepatocytes): metabolized to yield the corresponding active metabolites
– | CC(=O)OC(C1CC1)[C@@H]1C[C@@H](O)[C@H](n2c(=O)sc3cnc(N)nc32)O1 (single isomer, unassigned) [Example 16-A] | metabolic conversion of prodrug to active metabolite in human hepatocytes (human hepatocytes): metabolized to yield the corresponding active metabolites
14 µM | CCC(O)[C@@H]1C[C@@H](SC)[C@H](n2c(=O)sc3c(=O)[nH]c(N)nc32)O1 (single isomer, unassigned) [Example 22-A] | –
15 µM | C[C@@H]1C[C@@H]([C@@H](O)C2CC2)O[C@H]1n1c(=O)sc2c(=O)[nH]c(N)nc21 [Example 30, 5-Amino-3-[(2R,3R,5S)-5-[(S)-cyclopropyl(hydroxy)methyl]-3-methyl-tetrahydrofuran-2-yl]-6H-thiazolo[4,5-d]pyrimidine-2,7-dione] | –
70 µM | C=CC(O)[C@@H]1C[C@@H](O)[C@H](n2c(=O)sc3c(=O)[nH]c(N)nc32)O1 (single isomer, unassigned) [Example 24-A] | –
67 µM | Nc1nc2c(sc(=O)n2[C@@H]2O[C@H](CO)C[C@H]2N2CCCC2)c(=O)[nH]1 [Example 32, 5-Amino-3-[(2R,3R,5S)-5-(hydroxymethyl)-3-pyrrolidin-1-yl-tetrahydrofuran-2-yl]-6H-thiazolo[4,5-d]pyrimidine-2,7-dione] | –
446 µM | Nc1nc2c(sc(=O)n2[C@@H]2O[C@H](CO)C[C@H]2O)c(=O)[nH]1 [ANA-122, reference compound] | –
